Like-named read-outs stand apart in the source and are kept apart here.

Common to all, as to assay type: cell-based
Data set [1] has as its system PC3 prostate cancer cell line. In words: qHTS cell viability screen (Cell Titer Glo), PC3. Particulars: PC3 prostate, 72 hours, cell viability Cell Titer Glo, read-out: CC50 PC3. In general terms: qHTS replaces the single test concentration by a dilution series.
The test system of data set [2] is MDA-MB-231 breast cancer cell line. In words: qHTS cell viability screen (Cell Titer Glo), MDA-MB-231.
The subject of data set [3] is HT29 colorectal carcinoma. Kind of data set: qHTS cell viability screen (Cell Titer Glo), HT29.
The mark [4] stands for this setting: Homo sapiens, MDA-MB-231, 96 h, MDA-MB-231 breast, 96 hours, cell viability Cell Titer Glo, read-out: CC50 MDA-MB-231.
Where [5] appears, read: Homo sapiens, HT-29, 72 h, HT29 colorectal carcinoma, 72 hours, cell viability Cell Titer Glo, read-out: CC50 HT29.
The mark [6] stands for this setting: MDA-MB-231 breast, 96 hours, cell viability Cell Titer Glo, read-out: CC50 MDA-MB-231.
Setting [7] is: HT29 colorectal carcinoma, 72 hours, cell viability Cell Titer Glo, read-out: CC50 HT29.

Turning to `CSc1ccc(/C=C2/C(C)=C(CCNCCN(C)C)c3cc(F)ccc32)cc1` [Compound 10], the results for the CC50 in data set [1] (72 h), in data set [2] (setting [4]) and in data set [3] (setting [5]) were 4.38 ± 0.25 µM, 3.42 ± 1.5 µM and 1.97 ± 0.18 µM, respectively.

`CC1=C(CCNCc2ccccc2)c2cc(F)ccc2/C1=C\c1ccc([S+](C)[O-])cc1` (stereo not drawn) [Compound 11]: the CC50 (usually the concentration that lowers cell viability or growth by half) in data set [1] (72 h) amounted to 41.5 ± 5 µM; in data set [2] (setting [4]), 48.6 ± 7.85 µM; in data set [3] (setting [5]), 15.1 ± 1.42 µM.

With `CSc1ccc(/C=C2/C(C)=C(CN)c3cc(F)ccc32)cc1` [Compound 16], the figures for the CC50 in data set [1] (72 h), in data set [2] (setting [4]) and in data set [3] (setting [5]) were 33.6 ± 6.59 µM, 19.3 ± 2.12 µM and 16 ± 6.08 µM, respectively.

As to `CSc1ccc(/C=C2/C(C)=C(CNC(=O)Cc3ccccc3)c3cc(F)ccc32)cc1` [Compound 18], the CC50 in data set [1] (72 h) is 18.9 ± 9.71 µM; in data set [2] (setting [4]), 4.06 ± 1.97 µM; in data set [3] (setting [5]), 3.56 ± 1.25 µM.

Take `CSc1ccc(/C=C2/C(C)=C(CNC(=O)c3ccco3)c3cc(F)ccc32)cc1` [Compound 19]: the figures for the CC50 in data set [1], in data set [2] (setting [6]) and in data set [3] (setting [7]) were 39.8 ± 6.81 µM, 41.2 ± 7.6 µM and 33.2 ± 3.43 µM, respectively.

Consider `COc1cc(/C=C2/C(C)=C(CNC(=O)c3ccco3)c3cc(F)ccc32)cc(OC)c1OC` [Compound 27], for which the CC50 in data set [1], in data set [2] (setting [6]) and in data set [3] (setting [7]) was > 50 µM in each case.

`CSc1ccc(/C=C2/C(C)=C(CNS(=O)(=O)c3ccc(C)cc3)c3cc(F)ccc32)cc1` [Compound 37]: the CC50 was > 50 µM in data set [1], 20.5 ± 5.18 µM in data set [2] (setting [6]) and 8.08 ± 0.6 µM in data set [3] (setting [7]).

Consider `CSc1ccc(/C=C2/C(C)=C(CNS(=O)(=O)c3cccc4c(N(C)C)cccc34)c3cc(F)ccc32)cc1` [Compound 40], for which the CC50 is > 50 µM in data set [1], > 50 µM in data set [2] (setting [6]) and 38.4 ± 10.1 µM in data set [3] (setting [7]).

On to `COc1cc(/C=C2/C(C)=C(CNS(C)(=O)=O)c3cc(F)ccc32)cc(OC)c1OC` [Compound 41], for which the CC50 was found to be 18.9 ± 2.47 µM in data set [1], 12.9 ± 1.79 µM in data set [2] (setting [6]) and 20 ± 4.86 µM in data set [3] (setting [7]).

For `COc1cc(/C=C2/C(C)=C(CNS(=O)(=O)c3ccccc3)c3cc(F)ccc32)cc(OC)c1OC` [Compound 43], the CC50 in data set [1] was determined as 40.9 ± 16.8 µM; in data set [2] (setting [6]), 16.3 ± 3.96 µM; in data set [3] (setting [7]) it was 43.8 ± 23 µM.

On to `COc1cc(/C=C2/C(C)=C(CNS(=O)(=O)c3ccc(C)cc3)c3cc(F)ccc32)cc(OC)c1OC` [Compound 44], for which the CC50 in data set [1] is > 50 µM; in data set [2] (setting [6]) it was 44.5 ± 25.7 µM; in data set [3] (setting [7]), > 50 µM.

Consider `COc1cc(/C=C2/C(C)=C(CNS(=O)(=O)c3cccc4ccccc34)c3cc(F)ccc32)cc(OC)c1OC` [Compound 45], for which the CC50 in data set [1], in data set [2] (setting [6]) and in data set [3] (setting [7]) was > 50 µM in each case.

As to `COc1cc(/C=C2/C(C)=C(CNS(=O)(=O)c3cccc4c(N(C)C)cccc34)c3cc(F)ccc32)cc(OC)c1OC` [Compound 47], the CC50 in data set [1], in data set [2] (setting [6]) and in data set [3] (setting [7]) was > 50 µM each time.

With `CSc1ccc(/C=C2/C(C)=C(CN(Cc3ccccc3)Cc3ccccc3)c3cc(F)ccc32)cc1` [Compound 48], the CC50 in data set [1] (72 h), in data set [2] (setting [4]) and in data set [3] (setting [5]) was > 50 µM in each case.

Take `CSc1ccc(/C=C2/C(C)=C(CN(Cc3ccc(F)cc3)Cc3ccc(F)cc3)c3cc(F)ccc32)cc1` [Compound 50]: the CC50 in data set [1], in data set [2] and in data set [3] was > 50 µM in each case.

Turning to `CSc1ccc(/C=C2/C(C)=C(CN(Cc3ccc(N(C)C)cc3)Cc3ccc(N(C)C)cc3)c3cc(F)ccc32)cc1` [Compound 51], the CC50 in data set [1], in data set [2] and in data set [3] was > 50 µM throughout.

On to `CSc1ccc(/C=C2/C(C)=C(CN(Cc3ccc4ccccc4c3)Cc3ccc4ccccc4c3)c3cc(F)ccc32)cc1` [Compound 52], for which the CC50 in data set [1], in data set [2] and in data set [3] was > 50 µM in each case.

Regarding `CSc1ccc(/C=C2/C(C)=C(CN(CCc3ccccc3)CCc3ccccc3)c3cc(F)ccc32)cc1` [Compound 53], the CC50 in data set [1], in data set [2] and in data set [3] was > 50 µM throughout.

The values are drawn from article PMC5817852 (The Open Medicinal Chemistry Journal, 2018).
